Here are results for 30 molecules from US20190276389A1, “SYNTHESIS OF ARYL CYCLOHEXANE ESTER DERIVATIVES USEFUL AS SENSATES IN CONSUMER PRODUCTS” (The Procter & Gamble Company, priority 2015, published 2019).

Assay [1] can be described thus: Sensory evaluation of cooling intensity after brushing with dentifrice. The assay is classed as in vivo. The conditions noted are these: avg 7 panelists, dentifrice with 0.001% (10 ppm) coolant. The method, then:
Dentifrices were prepared using conventional methods, such as the protocols described in U.S. Pat. No. 8,747,814, which contained no coolant (SAMPLE A—Crest Cavity Protection) or having a coolant from TABLE 1 (SAMPLE B), in a flavor (wintergreen) at 10 parts per million (ppm).
Sensory evaluation studies of coolant activity were conducted using a methodology patterned after the techniques described in M. C. Meilgaard, et al., Sensory Evaluation Techniques, 4th Ed. (2007). Seven panelists brushed with a dentifrice from TABLE 2, having no coolant (SAMPLE A) or having a coolant from TABLE 1 (SAMPLE B), for two minutes, in a flavor (wintergreen) at 10 parts per million (ppm). After brush expectoration, panelists then rinsed their mouth with 15 ml of an aqueous rinse and expectorated.

In assay [2] the target is human TRPM8. Put plainly: TRPM8 Protocol-FLIPR Assay (intracellular Ca2+ in HEK-293 cells stably transfected with human TRPM8). The assay is classed as cell-based. The conditions noted are these: HEK-293 cells stably transfected with human TRPM8, Fluo-4 AM, read-out: TRPM8 EC 50 Value. As to the method:
(§1) Trypsin was inactivated by addition of 8 ml growth medium. Cells were transferred to a 50 ml tube and centrifuged at 850 rpm for 3 minutes to remove medium. After centrifugation, a pellet of cells was formed in the bottom of the tube separating them from the supernatant solution. […] Fluo-4 AM is a fluorescent dye used for quantifying cellular Ca^2+ concentrations in the 100 nM to 1 microM range. At the end of 30 minutes, 45 ml of assay buffer (1×BSS (Hank's Balanced Salt Solution), 20 mM HEPES (4-(2-Hydroxyethyl)-1-piperazineethanesulfonic acid)) was added to wash cells and the resulting mixture was then centrifuged at 850 rpm for 3 minutes to remove excess buffer and Fluo-4 AM calcium indicator.
(§2) The pelleted cells were re-suspended in 10 ml assay buffer and 90 μl aliquots (˜50,000 cells) per well delivered to a 96-well assay plate containing 10 μl of test compounds (1 mM in assay buffer, final concentration 100 μM) or buffer control and incubated at room temperature for 30 minutes. After 30 minutes, a plate was placed into a fluorometric imaging plate reader (FLIPR384 from Molecular Devices, Sunnyvale, Calif.) and basal fluorescence recorded (excitation wave length 488 nm and emission wave length 510 nm). Then 20 μl of […] of TRPM8 agonist WS5 coolant in the assay buffer was added and fluorescence recorded. For determining the direct effect of test compounds on TRPM8, fluorescence was measured immediately after addition of each compound (TABLE 1).

In assay [3] the target is human TRPM8 (UniProt Q8R4D5). The assay is described as above. The assay is classed as cell-based. The conditions noted are these: HEK-293 cells stably transfected with human TRPM8, Fluo-4 AM. The method, then: as §1, §2
The conditions of assay [4]: concentration where the cooling effect could be clearly recognized; cited from earlier work.

Turning to `CC(C)[C@@H]1CC[C@@H](C)C[C@H]1C(=O)OC[C@@H](NC(=O)[C@@H](C)N)c1ccccc1.Cl` [#1], the “Cooling Rating (0-90) of Dentifrice” value in assay [1] (Time 0 min, wintergreen flavor, 0 = no cooling, 90 = cold as ice) is 33.57; in assay [1] (Time 15 min), 32.71; in assay [1] (Time 30 min) it was 26.43; in assay [1] (Time 60 min) it was 35.71; in assay [1] (Time 120 min), 40.00; in assay [1] (Time 180 min), 36.43. Also, the “Cooling Rating (0-90) of Dentifrice” value in assay [1] (Time 240 min) is recorded as 34.29; in assay [1] (Time 300 min), 30.71; in assay [1] (Time 360 min) it was 30.71; in assay [1] (Time 420 min), 23.57; in assay [1] (Time 480 min), 20.71. Moreover, at human TRPM8 [2], the EC50 worked out at 8.08 nM.

In the case of `CC(C)[C@@H]1CC[C@@H](C)C[C@H]1OC(=O)C[C@@H](NC(=O)CN)c1ccccc1` [#2], at human TRPM8 [2], the EC50 was 62 nM.

Turning to `CC(C)[C@@H]1CC[C@@H](C)C[C@H]1C(=O)OC[C@@H](NC(=O)CNC(=O)OC(C)(C)C)c1ccccc1` [#3], the EC50 at human TRPM8 [2] turned out to be 23200 nM.

Turning to `CC(C)[C@@H]1CC[C@@H](C)C[C@H]1C(=O)OC[C@@H](NC(=O)CN)c1ccccc1` [#4], on human TRPM8 [2], the EC50 was 64 nM.

For `CC1CCC(C(C)C)C(OC(=O)C(N)c2ccccc2)C1` (centres unmarked) [#5], the EC50 at human TRPM8 [2] stood at 60200 nM.

As to `CC(C)[C@@H]1CC[C@@H](C)C[C@H]1OC(=O)C[C@@H](NC(=O)OC(C)(C)C)c1ccccc1` [#6], on human TRPM8 [3], the “TRPM8 EC 50 Value” was “Too high to measure”.

As to `CC1CCC(C(C)C)C(OC(=O)CC(N)c2ccccc2)C1` (centres unmarked) [#7], the EC50 on human TRPM8 [2] came to 8000 nM.

For `CC(C)[C@@H]1CC[C@@H](C)C[C@H]1OC(=O)C[C@@H](NC(=O)CNC(=O)OC(C)(C)C)c1ccccc1` [#8], at human TRPM8 [3], the “TRPM8 EC 50 Value” is “Too high to measure”.

With `CC(C)[C@@H]1CC[C@@H](C)C[C@H]1C(=O)OC[C@@H](OC(=O)CN)c1ccccc1` [#9], at human TRPM8 [2], the EC50 worked out at 13 nM.

With `CC(C)[C@@H]1CC[C@@H](C)C[C@H]1OC(=O)C[C@@H](NC(=O)[C@@H](C)N)c1ccccc1` [#10], the EC50 at human TRPM8 [2] worked out at 36.8 nM.

Regarding `CC(C)[C@@H]1CC[C@@H](C)C[C@H]1C(=O)OC[C@@H](NC(=O)[C@H](C)N)c1ccccc1` [#11], the EC50 on human TRPM8 [2] amounted to 343 nM.

For `CC(C)[C@@H]1CC[C@@H](C)C[C@H]1C(=O)OC[C@@H](O)c1ccccc1` [#12], the EC50 at human TRPM8 [2] was found to be 590 nM.

In the case of `CC(C)[C@H]1CC[C@H](C)C[C@@H]1OC(=O)C[C@@H](NC(=O)CN)c1ccccc1` [#13], at human TRPM8 [2], the EC50 came to 882 nM.

Turning to `CC(C)[C@@H]1CC[C@@H](C)C[C@H]1OC(=O)C[C@@H](NC(=O)[C@H](C)N)c1ccccc1` [#14], the EC50 on human TRPM8 [2] stood at 914 nM.

`CC(C)[C@@H]1CC[C@@H](C)C[C@H]1OC(=O)CC(NCCN)c1ccccc1` (some centres unmarked) [#15]: the EC50 at human TRPM8 [2] is 1960 nM.

Turning to `CC(C)[C@@H]1CC[C@@H](C)C[C@H]1OC(=O)CC(NCc1ccccn1)c1ccccc1` (some centres unmarked) [#16], the EC50 on human TRPM8 [2] turned out to be 2070 nM.

Turning to `CC(C)[C@@H]1CC[C@@H](C)C[C@H]1C(=O)OC[C@H](NC(=O)CN)c1ccccc1` [#17], the EC50 on human TRPM8 [2] is 2260 nM.

Consider `CC(C)[C@@H]1CC[C@@H](C)C[C@@H]1OC(=O)C[C@@H](NC(=O)CN)c1ccccc1` [#18], for which, at human TRPM8 [2], the EC50 worked out at 2950 nM.

Turning to `CC(C)[C@@H]1CC[C@@H](C)C[C@H]1OC(=O)C(Cc1ccccc1)NC(=O)CN` (some centres unmarked) [#19], the EC50 on human TRPM8 [2] was found to be 4280 nM.

`CC(C)[C@@H]1CC[C@@H](C)C[C@H]1C(=O)OC[C@@H](OC(=O)CNC(=O)OC(C)(C)C)c1ccccc1` [#20]: the EC50 at human TRPM8 [2] is 4470 nM.

As to `CC(C)[C@H]1CC[C@@H](C)C[C@@H]1OC(=O)C[C@@H](NC(=O)CN)c1ccccc1` [#21], at human TRPM8 [2], the EC50 is 4960 nM.

Take `CC(C)[C@@H]1CC[C@@H](C)C[C@H]1OC(=O)[C@@H](NC(=O)[C@H](C)N)c1ccccc1` [#22]: the EC50 at human TRPM8 [2] was determined as 32800 nM.

With `CC(C)[C@@H]1CC[C@@H](C)C[C@H]1OC(=O)[C@@H](NC(=O)CN)c1ccccc1` [#23], the EC50 on human TRPM8 [2] worked out at 34100 nM.

Take `CC(C)[C@@H]1CC[C@@H](C)C[C@H]1OC(=O)CCCCCN` [#25]: the EC50 at human TRPM8 [2] worked out at 9500 nM.

Turning to `CC(C)[C@@H]1CC[C@@H](C)C[C@H]1C(=O)OC[C@@H](OC(=O)[C@@H]1C[C@H](C)CC[C@H]1C(C)C)c1ccccc1` [#26], the EC50 on human TRPM8 [2] stood at 139000 nM.

On to `CC(C)[C@@H]1CC[C@@H](C)C[C@H]1COC(=O)C(NC(=O)CN)c1ccccc1` (some centres unmarked) [#27], for which the EC50 on human TRPM8 [2] was found to be 145000 nM.

For the molecule `CC(C)[C@@H]1CC[C@@H](C)CC1OC(=O)c1ccccc1NC(=O)CN` (some centres unmarked) [#34], the EC50 on human TRPM8 [2] came to 19000 nM.

Turning to `CC(C)[C@@H]1CC[C@@H](C)C[C@H]1O` [L-menthol], in assay [4], the cooling threshold entry is reported as “about 800 ppb”.

Take `CC(C)[C@@H]1CC[C@@H](C)C[C@@H]1O` [Sample 1-neomenthol, 1-neomenthol]: the cooling threshold entry in assay [4] is “about 3,000 ppb”.

`CC(C)[C@@H]1CC[C@@H](C)C[C@@H]1O` [d-neomenthol]: the cooling threshold result in assay [4] is listed as “about 25,000 ppb”.
